Measurements published in patent US20240002391A1, “4-ALKOXYPYRROLO[2,1-F][1,2,4]TRIAZINES AND PREPARATION AND USES THEREOF” (BioSplice Therapeutics, Inc., priority 2022, published 2024).

Target: recombinant DYRK1A kinase (Homo sapiens (Human), UniProt Q13627)
Test: DYRK1A kinase assay (Ser/Thr 18 peptide Z-lyte FRET)
Format: biochemical
Conditions: DYRK1A kinase activity, Z-lyte Ser/Thr 18 peptide, 15 μM ATP; method text calls the value IC50; read-out: EC50 (the source's name)
Method in brief: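 Recombinant enzyme (0.25 μg/mL final) was incubated with 15 μM ATP, 4 μM Ser/Thr 18 peptide and compound (11-point 1:3 series from 10 μM) for 1 h at room temperature, in duplicate. Development reagent was added for 1 h, and coumarin/fluorescein emission ratio gave % phosphorylation; IC50 by non-linear regression.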

| SMILES | IC50 [nM] |
| --- | --- |
| COc1nc(N[C@H]2C[C@](C)(NC(C)=O)C2)nn2ccc(-c3cnc4nccn4c3)c12 [Compound 935, N-((1r,3r)-3-((5-(Imidazo[1,2-a]pyrimidin-6-yl)-4-methoxypyrrolo[2,1-f][1,2,4]triazin-2-yl)amino)-1-methylcyclobutyl)acetamide] | 1.2 |
| COc1nc(N[C@@H]2CCC[C@@H]2O)nn2ccc(-c3cnc4nccn4c3)c12 [Compound 942, (1S,2R)-2-((5-(Imidazo[1,2-a]pyrimidin-6-yl)-4-methoxypyrrolo[2,1-f][1,2,4]triazin-2-yl)amino)cyclopentan-1-ol] | 18.9 |
| COc1nc(NC2CCCCC2)nn2ccc(-c3cnc4nccn4c3)c12 [Compound 944, N-Cyclohexyl-5-(imidazo[1,2-a]pyrimidin-6-yl)-4-methoxypyrrolo[2,1-f][1,2,4]triazin-2-amine] | 1.5 |
| COc1nc(NC2CCC(C)(C)CC2)nn2ccc(-c3cnc4nccn4c3)c12 [Compound 947, N-(4,4-Dimethylcyclohexyl)-5-(imidazo[1,2-a]pyrimidin-6-yl)-4-methoxypyrrolo[2,1-f][1,2,4]triazin-2-amine] | 2.2 |
| COc1nc(NC2CCC(C)(C#N)CC2)nn2ccc(-c3cnc4nccn4c3)c12 (stereo not shown) [Compound 948, 4-((5-(Imidazo[1,2-a]pyrimidin-6-yl)-4-methoxypyrrolo[2,1-f][1,2,4]triazin-2-yl)amino)-1-methylcyclohexane-1-carbonitrile] | 0.4 |
| COc1nc(N[C@H]2CC[C@](C)(OC)CC2)nn2ccc(-c3cnc4nccn4c3)c12 [Compound 954, 5-(Imidazo[1,2-a]pyrimidin-6-yl)-4-methoxy-N-((1r,4r)-4-methoxy-4-methylcyclohexyl)pyrrolo[2,1-f][1,2,4]triazin-2-amine] | 0.9 |
| COc1nc(N[C@@H]2CCNCC2(F)F)nn2ccc(-c3cnc4nccn4c3)c12 [Compound 964, (R)—N-(3,3-Difluoropiperidin-4-yl)-5-(imidazo[1,2-a]pyrimidin-6-yl)-4-methoxypyrrolo[2,1-f][1,2,4]triazin-2-amine] | 4.3 |
| COc1nc(N[C@@H]2CCN(C3COC3)CC2(F)F)nn2ccc(-c3cnc4nccn4c3)c12 [Compound 968, (R)—N-(3,3-Difluoro-1-(oxetan-3-yl)piperidin-4-yl)-5-(imidazo[1,2-a]pyrimidin-6-yl)-4-methoxypyrrolo[2,1-f][1,2,4]triazin-2-amine] | 2.8 |
| COc1nc(N[C@@H]2CCCOC2)nn2ccc(-c3cnc4nccn4c3)c12 [Compound 975, (R)-5-(Imidazo[1,2-a]pyrimidin-6-yl)-4-methoxy-N-(tetrahydro-2H-pyran-3-yl)pyrrolo[2,1-f][1,2,4]triazin-2-amine] | 7.6 |
| COc1nc(NC2CC3CC3C2)nn2ccc(-c3cnc4nccn4c3)c12 (stereo not shown) [Compound 976, N-(Bicyclo[3.1.0]hexan-3-yl)-5-(imidazo[1,2-a]pyrimidin-6-yl)-4-methoxypyrrolo[2,1-f][1,2,4]triazin-2-amine] | 2.5 |
| COc1nc(NC2CCC3(CC2)CC3)nn2ccc(-c3cnc4nccn4c3)c12 [Compound 977, 5-(Imidazo[1,2-a]pyrimidin-6-yl)-4-methoxy-N-(spiro[2.5]octan-6-yl)pyrrolo[2,1-f][1,2,4]triazin-2-amine] | 1.8 |
| COc1nc(NC23CCC(O)(CC2)C3)nn2ccc(-c3cnc4nccn4c3)c12 [Compound 978, 4-((5-(Imidazo[1,2-a]pyrimidin-6-yl)-4-methoxypyrrolo[2,1-f][1,2,4]triazin-2-yl)amino)bicyclo[2.2.1]heptan-1-ol] | 2.4 |
| COc1nc(N[C@H]2CC[C@](C)(O)CC2)nn2cc(F)c(-c3cnc4nccn4c3)c12 [Compound 996, (1r,4r)-4-((6-Fluoro-5-(imidazo[1,2-a]pyrimidin-6-yl)-4-methoxypyrrolo[2,1-f][1,2,4]triazin-2-yl)amino)-1-methylcyclohexan-1-ol] | 2.9 |
